Laboratory results: the supplement of paper PMC10883282

Experiments:
Assay in all cases: relative viability vs DMSO control (72 h) (fraction); higher = more viable cells
HT1080 = tested on: HT1080
Procedure, shortened: (§1)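 Sarcoma cell lines were seeded in 384-well plates at densities chosen for 80–90% confluence, then 24 h later given 2.5 µl of serially diluted compound drawn from source plates spanning 10 mM to 0.0002 mM. They were held 72 h at 37 °C, 5% CO2, with 0.1% DMSO vehicle and a 5 µM positive control included. Relative viability was read with ATPLite as percent growth and averaged over up to triplicate wells. Rescaling placed full at 1 and none at 0.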

SW872 = tested on: SW872
Procedure, shortened: as §1

SW1353 = tested on: SW1353
Procedure, shortened: as §1

KHOS-NP = tested on: KHOS-NP
Procedure, shortened: as §1

RD-ES = tested on: RD-ES
Procedure, shortened: as §1

MES-SA = tested on: MES-SA
Procedure, shortened: as §1

SK-ES-1 = tested on: SK-ES-1
Procedure, shortened: as §1

SW684 = tested on: SW684
Procedure, shortened: as §1

SK-LMS-1 = tested on: SK-LMS-1
Procedure, shortened: as §1

G401 = tested on: G401
Procedure, shortened: as §1

VA-ES-BJ = tested on: VA-ES-BJ
Procedure, shortened: as §1

RD = tested on: RD
Procedure, shortened: as §1

Cc1[nH]c(/C=C2\C(=O)Nc3ccccc32)c(C)c1CCC(=O)O [Orantinib]
Settings | relative viability
G401, 0.00017 µM | 1.07
G401, 0.00051 µM | 1.11
G401, 0.00152 µM | 1.07
G401, 0.00457 µM | 1.08
G401, 0.01372 µM | 1.07
G401, 0.04115 µM | 1.04
G401, 0.1235 µM | 1.057
G401, 0.3704 µM | 1.06
G401, 1.111 µM | 1.05
G401, 3.333 µM | 1.058
G401, 10 µM | 0.966
HT1080, 0.00017 µM | 1.09
HT1080, 0.00051 µM | 1.1
HT1080, 0.00152 µM | 1.13
HT1080, 0.00457 µM | 1.11
HT1080, 0.01372 µM | 1.08
HT1080, 0.04115 µM | 1.07
HT1080, 0.1235 µM | 1.11
HT1080, 0.3704 µM | 1.09
HT1080, 1.111 µM | 1.05
HT1080, 3.333 µM | 0.991
HT1080, 10 µM | 0.947
KHOS-NP, 0.00017 µM | 1.088
KHOS-NP, 0.00051 µM | 1.122
KHOS-NP, 0.00152 µM | 1.12
KHOS-NP, 0.00457 µM | 1.12
KHOS-NP, 0.01372 µM | 1.11
KHOS-NP, 0.04115 µM | 1.11
KHOS-NP, 0.1235 µM | 1.11
KHOS-NP, 0.3704 µM | 1.1
KHOS-NP, 1.111 µM | 1.09
KHOS-NP, 3.333 µM | 1.1
KHOS-NP, 10 µM | 1.08
MES-SA, 0.00017 µM | 1
MES-SA, 0.00051 µM | 0.989
MES-SA, 0.00152 µM | 0.975
MES-SA, 0.00457 µM | 0.968
MES-SA, 0.01372 µM | 0.951
MES-SA, 0.04115 µM | 0.948
MES-SA, 0.1235 µM | 0.948
MES-SA, 0.3704 µM | 0.953
MES-SA, 1.111 µM | 0.941
MES-SA, 3.333 µM | 0.941
MES-SA, 10 µM | 0.93
RD, 0.00017 µM | 1.05
RD, 0.00051 µM | 1.08
RD, 0.00152 µM | 1.1
RD, 0.00457 µM | 1.12
RD, 0.01372 µM | 1.11
RD, 0.04115 µM | 1.09
RD, 0.1235 µM | 1.12
RD, 0.3704 µM | 1.11
RD, 1.111 µM | 1.11
RD, 3.333 µM | 1.07
RD, 10 µM | 1.06
RD-ES, 0.00017 µM | 1.02
RD-ES, 0.00051 µM | 0.9951
RD-ES, 0.00152 µM | 1.01
RD-ES, 0.00457 µM | 1.03
RD-ES, 0.01372 µM | 1.03
RD-ES, 0.04115 µM | 1.02
RD-ES, 0.1235 µM | 1.01
RD-ES, 0.3704 µM | 1
RD-ES, 1.111 µM | 0.977
RD-ES, 3.333 µM | 0.983
RD-ES, 10 µM | 0.932
SK-ES-1, 0.00017 µM | 1.05
SK-ES-1, 0.00051 µM | 1.06
SK-ES-1, 0.00152 µM | 1.06
SK-ES-1, 0.00457 µM | 1.04
SK-ES-1, 0.01372 µM | 1.04
SK-ES-1, 0.04115 µM | 1.06
SK-ES-1, 0.1235 µM | 1.02
SK-ES-1, 0.3704 µM | 1.06
SK-ES-1, 1.111 µM | 0.999
SK-ES-1, 3.333 µM | 0.982
SK-ES-1, 10 µM | 0.998
SK-LMS-1, 0.00017 µM | 1.06
SK-LMS-1, 0.00051 µM | 1.072
SK-LMS-1, 0.00152 µM | 1.06
SK-LMS-1, 0.00457 µM | 1.04
SK-LMS-1, 0.01372 µM | 1.05
SK-LMS-1, 0.04115 µM | 1.07
SK-LMS-1, 0.1235 µM | 1.04
SK-LMS-1, 0.3704 µM | 1.032
SK-LMS-1, 1.111 µM | 0.994
SK-LMS-1, 3.333 µM | 0.971
SK-LMS-1, 10 µM | 0.8874
SW684, 0.00017 µM | 1.19
SW684, 0.00051 µM | 1.19
SW684, 0.00152 µM | 1.23
SW684, 0.00457 µM | 1.23
SW684, 0.01372 µM | 1.18
SW684, 0.04115 µM | 1.18
SW684, 0.1235 µM | 1.19
SW684, 0.3704 µM | 1.16
SW684, 1.111 µM | 1.12
SW684, 3.333 µM | 1.05
SW684, 10 µM | 0.967
SW872, 0.00017 µM | 1.1
SW872, 0.00051 µM | 1.12
SW872, 0.00152 µM | 1.09
SW872, 0.00457 µM | 1.1
SW872, 0.01372 µM | 1.09
SW872, 0.04115 µM | 1.08
SW872, 0.1235 µM | 1.06
SW872, 0.3704 µM | 1.04
SW872, 1.111 µM | 1.08
SW872, 3.333 µM | 1.05
SW872, 10 µM | 1.013
SW1353, 0.00017 µM | 1.08
SW1353, 0.00051 µM | 1.06
SW1353, 0.00152 µM | 1.087
SW1353, 0.00457 µM | 1.08
SW1353, 0.01372 µM | 1.05
SW1353, 0.04115 µM | 1.07
SW1353, 0.1235 µM | 1.04
SW1353, 0.3704 µM | 1.026
SW1353, 1.111 µM | 1
SW1353, 3.333 µM | 0.963
SW1353, 10 µM | 0.951
VA-ES-BJ, 0.00017 µM | 1.11
VA-ES-BJ, 0.00051 µM | 1.1
VA-ES-BJ, 0.00152 µM | 1.116
VA-ES-BJ, 0.00457 µM | 1.096
VA-ES-BJ, 0.01372 µM | 1.06
VA-ES-BJ, 0.04115 µM | 1.053
VA-ES-BJ, 0.1235 µM | 1.1
VA-ES-BJ, 0.3704 µM | 1.07
VA-ES-BJ, 1.111 µM | 1.028
VA-ES-BJ, 3.333 µM | 1.05
VA-ES-BJ, 10 µM | 0.998
